Measurements as given in patent US12655116B2, “Substituted isophthalic acid diamides” (Bayer Aktiengesellschaft, priority 2020, dated 2026).

Assays:
ABUTH [1] = assay: Post-emergence herbicidal action against ABUTH; format: in vivo, Abutilon theophrasti; conditions: visual assessment about 3 weeks after treatment vs untreated controls
How it was run: (§1)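 Sandy loam, greenhouse; treatment 2–3 weeks after sowing, one-leaf stage. Aqueous suspension or emulsion from WP/EC sprayed on foliage (600–800 l/ha, 0.2% wetting agent). Readout: visual % action, ~3 weeks.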

SETVI [2] = assay: Pre-emergence herbicidal action against SETVI; format: in vivo, Setaria viridis; conditions: dosage 80 g/ha
How it was run: (§2)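 Seeds sown in sandy loam, soil-covered; compound sprayed on soil surface pre-emergence. Application: WP/EC, 600–800 l/ha, 0.2% wetting agent. Readout: visual % damage at 3 weeks.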

POLCO = assay: Pre-emergence herbicidal action against POLCO; format: in vivo, Polygonum convolvulus; conditions: dosage 80 g/ha
How it was run: as §2

ALOMY [3] = assay: Pre-emergence herbicidal action against ALOMY; format: in vivo, Alopecurus myosuroides; conditions: 80 g/ha, pre-emergence, scored visually after 3 weeks vs untreated controls (100% = plants have died, 0% = like control plants)
How it was run: as §2

AMARE [4] = assay: Post-emergence herbicidal action against AMARE; format: in vivo, Amaranthus retroflexus; conditions: 20 g/ha, visual assessment about 3 weeks after treatment, 100% = plants have died, 0% = like control plants
How it was run: as §1

ALOMY [5] = assay: Post-emergence herbicidal action against ALOMY; format: in vivo, Alopecurus myosuroides; conditions: dosage 20 g/ha, visual assessment about 3 weeks after treatment vs untreated controls
How it was run: as §1

SETVI [6] = assay: Post-emergence herbicidal action against SETVI; format: in vivo, Setaria viridis
How it was run: as §1

AMARE [7] = assay: Pre-emergence herbicidal action against AMARE; format: in vivo, Amaranthus retroflexus
How it was run: as §2

DIGSA [8] = assay: Post-emergence herbicidal action against DIGSA; format: in vivo, Digitaria sanguinalis
How it was run: as §1

VERPE [9] = assay: Post-emergence herbicidal action against VERPE; format: in vivo, Veronica persica
How it was run: as §1

MATIN [10] = assay: Pre-emergence herbicidal action against MATIN; format: in vivo, Matricaria inodora
How it was run: as §2

ECHCG [11] = assay: Post-emergence herbicidal action against ECHCG; format: in vivo, Echinochloa crus-galli
How it was run: as §1

VIOTR [12] = assay: Post-emergence herbicidal action against VIOTR; format: in vivo, Viola tricolor
How it was run: as §1

ECHCG [13] = assay: Pre-emergence herbicidal action against ECHCG; format: in vivo, Echinochloa crus-galli; conditions: 80 g/ha
How it was run: as §2

DIGSA [14] = assay: Pre-emergence herbicidal action against DIGSA; format: in vivo, Digitaria sanguinalis
How it was run: as §2

ABUTH [15] = assay: Pre-emergence herbicidal action against ABUTH; format: in vivo, Abutilon theophrasti
How it was run: as §2

PHBPU [16] = assay: Post-emergence herbicidal action against PHBPU; format: in vivo, Pharbitis purpurea
How it was run: as §1

VIOTR [17] = assay: Pre-emergence herbicidal action against VIOTR; format: in vivo, Viola tricolor
How it was run: as §2

AVEFA [18] = assay: Post-emergence herbicidal action against AVEFA; format: in vivo, Avena fatua; conditions: 20 g/ha, visual assessment about 3 weeks after treatment, 100% = plants have died, 0% = like control plants
How it was run: as §1

PHBPU [19] = assay: Pre-emergence herbicidal action against PHBPU; format: in vivo, Pharbitis purpurea
How it was run: as §2

MATIN [20] = assay: Post-emergence herbicidal action against MATIN; format: in vivo, Matricaria inodora
How it was run: as §1

AVEFA [21] = assay: Pre-emergence herbicidal action against AVEFA; format: in vivo, Avena fatua; conditions: Avena fatua, 504 h; 80 g/ha, pre-emergence
How it was run: as §2

VERPE [22] = assay: Pre-emergence herbicidal action against VERPE; format: in vivo, Veronica persica; conditions: Veronica persica, 504 h, dosage 80 g/ha
How it was run: as §2

[23] = 80 g/ha, scored visually after 3 weeks vs untreated controls (100% = plants have died, 0% = like control plants)
[24] = Tripleurospermum inodorum, 504 h, dosage 20 g/ha
[25] = Ipomoea purpurea, 504 h, dosage 20 g/ha

## Cn1nnnc1NC(=O)c1ccc(C(F)(F)F)c(C(=O)NCC(F)F)c1C1CC1 [Example 1-291]
ABUTH [1]; dosage 5 g/ha
  Post-emergence action against ABUTH in %: 80%
ABUTH [1]; dosage 20 g/ha
  Post-emergence action against ABUTH in %: 90%
SETVI [2]
  Pre-emergence action against SETVI in %: 100%
POLCO
  Pre-emergence action against POLCO in %: 80%
ALOMY [3]
  Pre-emergence action against ALOMY (herbicidal activity): 80%
AMARE [4]
  Post-emergence action at 20 g/ha against AMARE in %: 90%
ALOMY [5]
  Post-emergence action against ALOMY in %: 90%
SETVI [6]; dosage 20 g/ha
  Post-emergence action against SETVI in %: 80%
AMARE [7]; 20 g/ha, scored visually after 3 weeks vs untreated controls, 100% = plants have died, 0% = like control plants
  Pre-emergence action against AMARE in %: 100%
AMARE [7]; [23]
  Pre-emergence action against AMARE in %: 100%
DIGSA [8]; 5 g/ha
  Post-emergence action against DIGSA in %: 90%
DIGSA [8]; 20 g/ha
  Post-emergence action against DIGSA: 100%
VERPE [9]; 20 g/ha
  Post-emergence action against VERPE in %: 80%
MATIN [10]; dosage 20 g/ha
  Pre-emergence action against MATIN in %: 90%
MATIN [10]; dosage 80 g/ha
  Pre-emergence action against MATIN in %: 100%
ECHCG [11]; dosage 5 g/ha
  Post-emergence action against ECHCG in %: 80%
ECHCG [11]; dosage 20 g/ha
  Post-emergence action against ECHCG in %: 80%
VIOTR [12]; 5 g/ha
  Post-emergence action against VIOTR in %: 90%
VIOTR [12]; 20 g/ha
  Post-emergence action against VIOTR in %: 100%
ECHCG [13]
  Pre-emergence action against ECHCG in %: 90%
DIGSA [14]; dosage 20 g/ha
  Pre-emergence action against DIGSA in %: 100%
DIGSA [14]; dosage 80 g/ha
  Pre-emergence action against DIGSA in %: 100%
ABUTH [15]; [23]
  Pre-emergence action against ABUTH (herbicidal activity): 100%
ABUTH [15]; dosage 20 g/ha, scored visually after 3 weeks vs untreated controls, 100% = plants have died, 0% = like control plants
  Pre-emergence action against ABUTH (herbicidal activity in percent): 100%
PHBPU [16]; dosage 5 g/ha
  Post-emergence action against PHBPU in %: 80%
PHBPU [16]; dosage 20 g/ha
  Post-emergence action against PHBPU in %: 90%
VIOTR [17]; dosage 20 g/ha
  Pre-emergence action against VIOTR in %: 100%
VIOTR [17]; dosage 80 g/ha
  Pre-emergence action against VIOTR in %: 100%
AVEFA [18]
  Post-emergence action at 20 g/ha against AVEFA in %: 80%
PHBPU [19]; dosage 80 g/ha
  Pre-emergence action against PHBPU in %: 80%
MATIN [20]; dosage 5 g/ha
  Post-emergence action against MATIN in %: 80%
MATIN [20]; dosage 20 g/ha
  Post-emergence action against MATIN in %: 90%

## CCc1c(C(=O)Nc2nnnn2C)ccc(C(F)F)c1C(=O)NC [Example 1-277]
ABUTH [1]; Abutilon theophrasti, 504 h, dosage 5 g/ha
  pest or weed control at 5 g/ha: 90%
ABUTH [1]; Abutilon theophrasti, 504 h, dosage 20 g/ha
  pest or weed control at 20 g/ha: 90%
SETVI [2]; Setaria viridis, 504 h
  pest or weed control at 80 g/ha: 100%
AVEFA [21]
  pest or weed control at 80 g/ha: 90%
POLCO; Fallopia convolvulus, 504 h
  pest or weed control at 80 g/ha: 90%
ALOMY [3]; Alopecurus myosuroides, 504 h
  pest or weed control at 80 g/ha: 90%
AMARE [4]; Amaranthus retroflexus, 504 h
  pest or weed control at 20 g/ha: 100%
SETVI [6]; Setaria viridis, 504 h, dosage 5 g/ha
  pest or weed control at 5 g/ha: 90%
SETVI [6]; Setaria viridis, 504 h, dosage 20 g/ha
  pest or weed control at 20 g/ha: 90%
VERPE [22]
  pest or weed control at 80 g/ha: 90%
AMARE [7]; Amaranthus retroflexus, 504 h, 20 g/ha, scored visually after 3 weeks vs untreated controls, 100% = plants have died, 0% = like control plants
  pest or weed control at 20 g/ha: 100%
AMARE [7]; Amaranthus retroflexus, 504 h, 80 g/ha, scored visually after 3 weeks vs untreated controls, 100% = plants have died, 0% = like control plants
  pest or weed control at 80 g/ha: 100%
DIGSA [8]; Digitaria sanguinalis, 504 h, 5 g/ha
  pest or weed control at 5 g/ha: 90%
DIGSA [8]; Digitaria sanguinalis, 504 h, 20 g/ha
  pest or weed control at 20 g/ha: 90%
VERPE [9]; Veronica persica, 504 h, 5 g/ha
  pest or weed control at 5 g/ha: 80%
VERPE [9]; Veronica persica, 504 h, 20 g/ha
  pest or weed control at 20 g/ha: 90%
MATIN [10]; [24]
  pest or weed control at 20 g/ha: 90%
MATIN [10]; Tripleurospermum inodorum, 504 h, dosage 80 g/ha
  pest or weed control at 80 g/ha: 100%
ECHCG [11]; Echinochloa crus-galli, 504 h, dosage 20 g/ha
  pest or weed control at 20 g/ha: 90%
VIOTR [12]; Viola tricolor, 504 h, 5 g/ha
  pest or weed control at 5 g/ha: 80%
VIOTR [12]; Viola tricolor, 504 h, 20 g/ha
  pest or weed control at 20 g/ha: 90%
ECHCG [13]; Echinochloa crus-galli, 504 h
  pest or weed control at 80 g/ha: 90%
DIGSA [14]; Digitaria sanguinalis, 504 h, dosage 20 g/ha
  pest or weed control at 20 g/ha: 100%
DIGSA [14]; Digitaria sanguinalis, 504 h, dosage 80 g/ha
  pest or weed control at 80 g/ha: 100%
ABUTH [15]; Abutilon theophrasti, 504 h, 80 g/ha, scored visually after 3 weeks vs untreated controls (100% = plants have died, 0% = like control plants)
  pest or weed control at 80 g/ha: 100%
ABUTH [15]; Abutilon theophrasti, 504 h, dosage 20 g/ha, scored visually after 3 weeks vs untreated controls, 100% = plants have died, 0% = like control plants, read-out: Pre-emergence action against ABUTH (herbicidal activity in percent)
  pest or weed control at 20 g/ha: 90%
PHBPU [16]; Ipomoea purpurea, 504 h, dosage 5 g/ha
  pest or weed control at 5 g/ha: 90%
PHBPU [16]; [25]
  pest or weed control at 20 g/ha: 90%
VIOTR [17]; Viola tricolor, 504 h, dosage 20 g/ha
  pest or weed control at 20 g/ha: 100%
VIOTR [17]; Viola tricolor, 504 h, dosage 80 g/ha
  pest or weed control at 80 g/ha: 100%
AVEFA [18]; Avena fatua, 504 h
  pest or weed control at 20 g/ha: 80%
PHBPU [19]; [25]
  pest or weed control at 20 g/ha: 80%
PHBPU [19]; Ipomoea purpurea, 504 h, dosage 80 g/ha
  pest or weed control at 80 g/ha: 90%
MATIN [20]; Tripleurospermum inodorum, 504 h, dosage 5 g/ha
  pest or weed control at 5 g/ha: 90%
MATIN [20]; [24]
  pest or weed control at 20 g/ha: 90%
